Laboratory results: patent publication US6207656A, “Vitamin D analogues and their neuronal effects” (Cephalon, Inc., priority 1998, dated 2001)
“Also recorded” adds a separate entry of the source.

What was measured:
[1] = Calcemic activity in rats, serum calcium after 7 days oral gavage; format: in vivo, LEW/MOL female rats; conditions: for Calcium in Serum: ± S.D.; for Calcemic Activity (%): potency relative to 1α,25(OH)2 D3, rats, p.o. 7 days; for calcemic classification: summary statement
Protocol: For determining calcemic activity, LEW/MOL female rats (130-170 g) were administered test compounds daily for 7 days by oral gavage. Control rats received the vehicle. Each group consisted of 3 rats. Blood was collected by cardiac puncture on day 7.

CNTF mRNA = experiment: Induction of CNTF mRNA expression in rats; format: in vivo, Sprague Dawley rats
Protocol: Young adult male Sprague Dawley rats (250-350 g) were administered Compound (A), Compound (E), or a vehicle (80% propylene glycol (human formulation grade; Spectrum Quality Products, Inc., Gardena, Calif., catalog #PR130-55003) and 20% phosphate buffer, pH 9.2) at doses ranging from 0.1 to 5.5 μg/kg daily by oral gavage for eight days. Five hours after the last dose, the animals were sacrificed by decapitation. Each brain was quickly removed and chilled in ice-cold saline. The brain was cut into 2 mm thick coronal sections. Portions of the hippocampus, encompassing the CA1 region, and the medial septum were removed by punching 2 mm^3 sections using a calibrated tissue punch. Punched sections were immediately frozen on dry ice and then stored at -70° C. RNA was prepared from dissected tissue pieces.
Punches of tissue were homogenized in […] RNAzolB™ (Bioteex Laboratories, Houston, Tex.) using a homogenizer (Tekmar, Germany) until fully homogenized and then 250 μl RNAzilB™ was added. Typically, punches from the corresponding regions of brains of 2 to 3 animals were combined together. RNA was prepared as recommended by the manufacturer (Biotecx Laboratories). […] Concentration of RNA was measured spectrophotometrically and the quality of RNA was visualized on a nondenaturing agarose gel. […]

NGF mRNA = experiment: Induction of NGF mRNA expression in rats; format: in vivo, Sprague Dawley rats
Protocol: Five hours after the last dose, the animals were sacrificed by decapitation. Each brain was quickly removed and chilled in ice-cold saline. The brain was cut into 2 mm thick coronal sections. Portions of the hippocampus, encompassing the CA1 region, and the medial septum were removed by punching 2 mm^3 sections using a calibrated tissue punch. Punched sections were immediately frozen on dry ice and then stored at -70° C. RNA was prepared from dissected tissue pieces.
Punches of tissue were homogenized in […] RNAzolB™ (Bioteex Laboratories, Houston, Tex.) using a homogenizer (Tekmar, Germany) until fully homogenized and then 250 μl RNAzilB™ was added. Typically, punches from the corresponding regions of brains of 2 to 3 animals were combined together. RNA was prepared as recommended by the manufacturer (Biotecx Laboratories). Following isopropanol precipitation, RNA was reprecipitated with ethanol and finally resuspended in 25-50 μL of water. Concentration of RNA was measured spectrophotometrically and the quality of RNA was visualized on a nondenaturing agarose gel. Equal amounts of RNA, usually 1-2 μg, were reverse transcribed using Superscript II™ (Gibco BRL), as recommended by the manufacturer. The assay was terminated by incubation at 95° C. 1 min. at 55-60° C. (depending on the primer set) and 2 min. at 72° C. […] After the assay, samples were electrophoresed on 5% nondenaturing acrylamide gels. Gels were dried and the resulting labeled bands were visualized on a phosphorimager (Storm 840, Molecular Dynamics, Sunnyvale, Calif.). The following primers were used: […]
Nerve Growth Factor (NGF). Primers were designed against the rat sequence.

[2] = Serum calcium in fimbria fornix lesioned rats; format: in vivo, Sprague Dawley rats; conditions: oral gavage daily 14 days; data not shown
Protocol: For the fimbria fornix lesion studies, serum calcium was determined by the following method. Sprague Dawley rats (200-300 g) were dosed as described below. Blood was collected from the animals after sacrifice and allowed to clot at room temperature for 3-10 minutes; cells were pelleted in a clinical centrifuge.
(§1) The hippocampal ChAT activity is expressed as a percentage of the hippocampal ChAT activity of the […] control side (i.e., lesion control) in FIGS. 4 to 8.

hippocampal ChAT = experiment: Fimbria fornix lesion model, hippocampal ChAT activity; format: in vivo, rat; conditions: oral gavage daily 14 days, FIGS. 4 to 8; * p<0.05 vs vehicle-treated lesioned controls
Excerpt: The fimbria fornix lesion model is an established protocol for assessing cholinergic neuronal survival in the basal forebrain. […] Contained within the region of the brain 10 are cholinergic neurons 16. A healthy cholinergic neuron has a cell body 18, and one or more axons 20. Each of the axons 20 have a free end, referred to as a terminal 22, that extends into the hippocampus 14. In the fimbria fornix lesion model, damaged cholinergic neurons 24 are produced by transecting a portion of the axons 20 at a location 26 between the hippocampus 14 and the cell body 18. As a result of this transection, damaged cell bodies 28 are produced that no longer have cholinergic axons 30 and terminals 32. These damaged cell bodies 28, also lose cholinergic cell body markers 34 and stop producing ChAT. The fimbria fornix lesion model is used to study methods of restoring ChAT production, such as through stimulating increased production of ChAT in the healthy cholinergic neurons, and/or through restoring normal functioning of the damaged cholinergic neurons 24.
For the studies described herein, animals were anesthetized with pentobarbital and placed in a stereotaxic apparatus. The skull was opened on the left side, a knife was positioned 1.2 mm posterior to bregma and 0.6 mm lateral to the midline. The knife was lowered to 4.5 mm below the dura into the brain and moved laterally 2 mm partially transecting the fimbria fornix. After 14 days of administration of the test compounds by oral gavage, the hippocampus was removed and homogenized.
as §1

vitamin D receptor = target: T1, vitamin D receptor (Gallus gallus, UniProt O42392); experiment: Vitamin D receptor binding (displacement of 3H-1α,25(OH)2D3)
T1 sequence (O42392 1-451): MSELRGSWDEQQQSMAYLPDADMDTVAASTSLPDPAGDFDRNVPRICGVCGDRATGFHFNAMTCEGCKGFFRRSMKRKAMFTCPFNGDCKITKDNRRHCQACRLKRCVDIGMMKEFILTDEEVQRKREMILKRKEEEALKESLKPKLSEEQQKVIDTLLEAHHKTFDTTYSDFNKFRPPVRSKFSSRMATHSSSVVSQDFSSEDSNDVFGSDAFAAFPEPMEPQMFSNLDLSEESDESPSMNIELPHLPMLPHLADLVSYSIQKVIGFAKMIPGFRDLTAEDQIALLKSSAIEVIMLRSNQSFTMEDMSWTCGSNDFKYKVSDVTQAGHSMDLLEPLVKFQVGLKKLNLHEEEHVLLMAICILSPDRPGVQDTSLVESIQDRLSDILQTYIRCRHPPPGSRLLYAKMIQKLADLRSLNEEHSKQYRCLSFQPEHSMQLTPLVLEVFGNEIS
Excerpt: Bound and free ^3 H-1α,25(OH2)D3 were then separated on dextran-coated charcoal, samples were centrifuged and the supernatants containing the receptor-bound ^3 H-1α,25(OH2)D3 were counted in a liquid scintillation counter.

[3] = test system: acrylamide-induced peripheral neuropathy in rats; experiment: Acrylamide-induced peripheral neuropathy, landing foot spread; format: in vivo, rat
Protocol: Peripheral neuropathy was induced in rats by the administration of the neurotoxin acrylamide, 50 mg/kg, IP, 3×/week. The acrylamide treatment occurred during the first three weeks of the experiment. After acrylamide was discontinued, the animals were allowed to recover for an additional 3-5 weeks. The ability of Compound (A) or Compound (B) to either slow the onset of peripheral neuropathy, reduce the severity of the peripheral neuropathy or enhance the recovery from peripheral neuropathy was determined. The compounds were administered either orally (Compound (A)) or via subcutaneous Alzet mini-pumps (I month model)(Compounds (A) and (B)) beginning 3 days prior to the first dose of acrylamide. Compound (A) was administered orally at doses of 0.3, 1.0 and 3.0 μg/kg/day and by mini-pump at doses of 10, 55, 100, 330 and 550 ng/day. Compound (B) was administered by mini-pump at doses of 10, 33, 100, 330 and 1000 ng/day. These dose ranges were selected to limit toxicity and to bracket the dose range used in fimbria fornix lesion experiments. The mini-pumps were replaced at the end of the fourth week so that the test compound was on board for the duration of the experiment. In FIG. 11B, the data from FIG. 11A was averaged.

C=C1/C(=C\C=C2/CCC[C@]3(C)[C@@H]([C@H](C)/C=C/C#CC(O)(CC)CC)CC[C@@H]23)C[C@@H](O)C[C@@H]1O [Compound (E)]
Calcium in Serum ([1]; 0.1 μg/kg/day p.o., Table 2E (vehicle 2.51 ± 0.09)): 2.41 ± 0.01 mmol/L | Calcium in Serum ([1]; 1.0 μg/kg/day p.o., Table 2E (vehicle 2.51 ± 0.09)): 2.42 ± 0.04 mmol/L | Calcium in Serum ([1]; 10 μg/kg/day p.o., Table 2E (vehicle 2.51 ± 0.09)): 2.38 ± 0.03 mmol/L | Calcemic Activity (%) [1]: 20% | calcemic classification [1]: exemplary of low calcemic vitamin D3 analogues | production of CTNF mRNA (CNTF mRNA; 0.3, 1.0, 3.0, and 5.5 μg/kg oral, 8 days, rat septum (FIG. 2B)): facilitated the production of NGF mRNA and CTNF mRNA | dose dependence of CTNF mRNA production (CNTF mRNA; 0.3-5.5 μg/kg, rat septum): generally increased with increasing dosage | production of NGF mRNA (NGF mRNA; 0.3, 1.0, 3.0, and 5.5 μg/kg oral, 8 days, rat septum (FIG. 2A)): facilitated the production of NGF mRNA | dose dependence of NGF mRNA production (NGF mRNA; 0.3-5.5 μg/kg, rat septum): generally increased with increasing dosage | serum calcium at doses giving the ChAT results [2]: low calcemic dose levels | hippocampal ChAT activity vs lesioned controls (hippocampal ChAT): significant increase in CHAT activity | Kd (vitamin D receptor): 0.3 nM

C=C1/C(=C\C=C2/CCC[C@]3(C)[C@@H]([C@@H](C)COc4cccc(C(C)(C)O)c4)CC[C@@H]23)C[C@@H](O)C[C@@H]1O [Compound (C), 1(S), 3(R)-dihydroxy-20(R)-[3-(2-hydroxy-2-propyl)-phenoxymethyl]-9,10-seco-pregna-5(Z),7(E),10(19)-triene]
Calcium in Serum ([1]; 0.1 μg/kg/day p.o., Table 2C (vehicle 2.68 ± 0.03)): 2.71 ± 0.07 mmol/L | Calcium in Serum ([1]; 1.0 μg/kg/day p.o., Table 2C (vehicle 2.68 ± 0.03)): 2.66 ± 0.06 mmol/L | Calcium in Serum ([1]; 10 μg/kg/day p.o., Table 2C (vehicle 2.68 ± 0.03)): 2.82 ± 0.05 mmol/L | Calcemic Activity (%) [1]: 8% | calcemic classification [1]: exemplary of low calcemic vitamin D3 analogues | serum calcium at doses giving the ChAT results [2]: low calcemic dose levels | hippocampal ChAT activity vs lesioned controls (hippocampal ChAT): significant increase in CHAT activity

C=C1/C(=C\C=C2/CCC[C@]3(C)[C@@H]([C@H](C)CCCCC(O)(CC)CC)CC[C@@H]23)C[C@@H](O)C[C@@H]1O [Compound (D)]
Calcium in Serum ([1]; 0.1 μg/kg/day p.o., Table 2D (vehicle 2.51 ± 0.09)): 2.59 ± 0.08 mmol/L | Calcium in Serum ([1]; 5.0 μg/kg/day p.o., Table 2D (vehicle 2.51 ± 0.09)): 2.90 ± 0.06 mmol/L | Calcium in Serum ([1]; 10 μg/kg/day p.o., Table 2D (vehicle 2.51 ± 0.09)): 3.19 ± 0.16 mmol/L | Calcemic Activity (%) [1]: 20% | calcemic classification [1]: exemplary of low calcemic vitamin D3 analogues | serum calcium at doses giving the ChAT results [2]: low calcemic dose levels | hippocampal ChAT activity vs lesioned controls (hippocampal ChAT): significant increase in CHAT activity

C=C1/C(=C\C=C2/CCC[C@]3(C)[C@@H]([C@@H](C)CSc4cccc(C(C)(C)O)c4)CC[C@@H]23)C[C@@H](O)C[C@@H]1O [Compound (B), 1(S),3(R)-dihydroxy-20(R)-(3-((1-hydroxy-1-methyl)ethyl)phenylthiomethyl)-9,10-seco-pregna-5(Z),7(E),10(19)-triene]
Calcium in Serum ([1]; 10 μg/kg/day p.o., Table 2B (vehicle 2.57 ± 0.06)): 2.51 ± 0.05 mmol/L | Calcium in Serum ([1]; 50 μg/kg/day p.o., Table 2B (vehicle 2.57 ± 0.06)): 2.59 ± 0.02 mmol/L | Calcium in Serum ([1]; 100 μg/kg/day p.o., Table 2B (vehicle 2.57 ± 0.06)): 2.59 ± 0.04 mmol/L | Calcemic Activity (%) [1]: 1% | calcemic classification [1]: exemplary of low calcemic vitamin D3 analogues | development of peripheral neuropathy ([3]; continuously pumped (mini-pump)): did not prevent the development of the acrylamide-induced peripheral neuropathy | recovery from peripheral neuropathy ([3]; mini-pump): increased the recovery from acrylamide-induced peripheral neuropathy; also recorded: an effect upon the recovery from the lesion was apparent | return of landing foot spread to sham levels ([3]; mini-pump 10 ng/day): returned to sham levels by day 36 | landing foot spread on day 40 ([3]; mini-pump 10, 100 or 1000 ng/day (FIG. 13B)): statistically significant decrease in landing foot spread | landing foot spread ([3]; mini-pump, recovery period): decreased landing foot spread during the recovery period | serum calcium at doses giving the ChAT results [2]: low calcemic dose levels | hippocampal ChAT activity vs lesioned controls (hippocampal ChAT): significant increase in CHAT activity | Kd (vitamin D receptor): 0.2 nM
